Patent publication US11279733B2, “Peptide antibiotics” (priority 2017, dated 2022)
In brackets after ≈: the same amount, converted by molar mass. Read-outs that look alike come from different tables or passages of the source. Positions of bridges follow the written chain, without caps; N, C: chain ends. Non-standard residues stand in square brackets, D forms with d. Residues, ends and D or L forms follow the SMILES beside them. *: point of attachment. Decanoyl(3R-OH) = CCCCCCC[C@@H](O)CC(=O)*; X3 = CCCCCCCCCCCC(O)CC(=O)*; Decanoyl = CCCCCCCCCC(=O)*; dDab = NCC[C@@H](N)C(=O)O; Dab = NCC[C@H](N)C(=O)O

Tests used:
[1] = test system: K. pneumoniae ATCC BAA-2146, NDM-1 pos; conditions: ATCC BAA-2146
Procedure: (§1) Bacteria were either obtained from American Type Culture Collection (ATCC; Manassas, Va., USA) or independent academic clinical isolate collections, as listed in Table 18 below. Bacteria were cultured in Nutrient broth (NB; Bacto Laboratories, catalogue No. 234000) or Mueller Hinton broth (MHB; Bacto Laboratories, catalogue No. 211443) at 37° C. overnight with shaking (˜180 RPM). A sample of each culture was then diluted 50-fold in fresh MHB and incubated at 37° C. for 2-3 h with shaking (˜180 RPM). Compound stock solutions were prepared as 0.64 mg/mL or 2.56 mg/mL in water. The compounds, at twice the final desired concentration, were serially diluted 2-fold across the wells of 96-well plates (Polystyrene, Corning, catalogue No. 3370). Mid-log phase bacterial cultures (after 2-3 h incubation) were diluted to a final concentration of 1×10^6 colony forming units (CFU)/mL, and 50 μL was added to each well giving a final cell density of 5×10^5 and a compound concentration range of 32 μg/mL to 0.015 μg/mL (128-0.06 μg/mL against P. aeruginosa PA9704).

[2] = test system: P. aeruginosa ATCC 27853; conditions: ATCC 27853
Procedure: as §1

[3] = test system: E. coli ATCC 25922; conditions: ATCC 25922
Procedure: as §1

[4] = test system: P. aeruginosa GN_043, PmxR
Procedure: as §1

[5] = test system: A. baumannii GN_093 PmxR; conditions: GN 093 PmxR
Procedure: as §1

[6] = test system: K. pneumoniae ATCC 700603, MDR; conditions: ATCC 700603
Procedure: as §1

[7] = test system: S. aureus ATCC 25923, MSSA; conditions: ATCC 25923
Procedure: as §1

[8] = test system: A. baumannii ATCC 19606; conditions: ATCC 19606
Procedure: as §1

[9] = test system: K. pneumoniae ATCC 13883; conditions: ATCC 13883
Procedure: as §1

[10] = test system: P. aeruginosa GN_105, PmxR; conditions: GN 105, PmxR
Procedure: as §1

[11] = test system: K. pneumoniae GN_102 PmxR; conditions: GN 102 PmxR
Procedure: as §1

[12] = test system: K. pneumoniae GN_106, PmxR; conditions: GN 106, PmxR
Procedure: as §1

CCCCCCC[C@@H](O)CC(=O)N[C@H](CCN)C(=O)N[C@H]1CCNC(=O)[C@H](CC(C)C)NC(=O)[C@H](CCN)NC(=O)[C@H](CCN)NC(=O)[C@H](Cc2ccccc2)NC(=O)[C@@H](Cc2ccccc2)NC(=O)[C@H](CCN)NC1=O [compound 5003, 3(R)OH-nC9CO-D-Dab-cyc[L-Dab-L-Dab-D-Phe-L-Phe-L-Dab-L-Dab-L-Leu]] ({Decanoyl(3R-OH)}-[dDab][Dab][Dab][dF]F[Dab][Dab]L; lactam 2-C)
MIC K. pneumoniae ATCC BAA-2146, NDM-1 pos [1]: 16 µg/mL (≈ 14.8 µM)
MIC P. aeruginosa ATCC 27853 [2]: 2 µg/mL (≈ 1.85 µM)
MIC E. coli ATCC 25922 [3]: 8 µg/mL (≈ 7.42 µM)
MIC P. aeruginosa GN_043, PmxR ([4]; P. aeruginosa GN_043, PmxR): 2 µg/mL (≈ 1.85 µM)
MIC A. baumannii GN_093 PmxR [5]: 8 µg/mL (≈ 7.42 µM)
MIC K. pneumoniae ATCC 700603, MDR [6]: 16 µg/mL (≈ 14.8 µM)
MIC S. aureus ATCC 25923, MSSA [7]: 8 µg/mL (≈ 7.42 µM)
MIC A. baumannii ATCC 19606 [8]: 16 µg/mL (≈ 14.8 µM)
MIC K. pneumoniae ATCC 13883 [9]: 4 µg/mL (≈ 3.71 µM)
MIC P. aeruginosa GN_105, PmxR [10]: 2 µg/mL (≈ 1.85 µM)
MIC K. pneumoniae GN_102 PmxR [11]: 4 µg/mL (≈ 3.71 µM)
MIC K. pneumoniae GN_106, PmxR [12]: 4 µg/mL (≈ 3.71 µM)

CCCCCCCCCCCC(O)CC(=O)N[C@H](CCN)C(=O)N[C@H]1CCNC(=O)[C@H](CC(C)C)NC(=O)[C@H](CCN)NC(=O)[C@H](CCN)NC(=O)[C@H](CC(C)C)NC(=O)[C@@H](Cc2ccccc2)NC(=O)[C@H](CCN)NC1=O (stereo partly drawn) [compound 5015, 3OH-nC13CO-D-Dab-cyc[L-Dab-L-Dab-D-Phe-L-Leu-L-Dab-L-Dab-L-Leu]] (X3-[dDab][Dab][Dab][dF]L[Dab][Dab]L; lactam 2-C)
MIC K. pneumoniae ATCC BAA-2146, NDM-1 pos [1]: 8 µg/mL (≈ 7.27 µM)
MIC P. aeruginosa ATCC 27853 [2]: 4 µg/mL (≈ 3.63 µM)
MIC E. coli ATCC 25922 [3]: 4 µg/mL (≈ 3.63 µM)
MIC P. aeruginosa GN_043, PmxR [4]: 4 µg/mL (≈ 3.63 µM)
MIC A. baumannii GN_093 PmxR [5]: 8 µg/mL (≈ 7.27 µM)
MIC K. pneumoniae ATCC 700603, MDR [6]: 8 µg/mL (≈ 7.27 µM)
MIC S. aureus ATCC 25923, MSSA [7]: 4 µg/mL (≈ 3.63 µM)
MIC A. baumannii ATCC 19606 [8]: 4 µg/mL (≈ 3.63 µM)
MIC K. pneumoniae ATCC 13883 [9]: 4 µg/mL (≈ 3.63 µM)
MIC P. aeruginosa GN_105, PmxR [10]: 4 µg/mL (≈ 3.63 µM)
MIC K. pneumoniae GN_102 PmxR [11]: 8 µg/mL (≈ 7.27 µM)
MIC K. pneumoniae GN_106, PmxR [12]: 4 µg/mL (≈ 3.63 µM)

CCCCCCCCCC(=O)N[C@H](CCN)C(=O)N[C@H]1CCNC(=O)[C@H](CC(C)C)NC(=O)[C@H](CCN)NC(=O)[C@H](CCN)NC(=O)[C@H](CC(C)C)NC(=O)[C@@H](Cc2ccccc2)NC(=O)[C@H](CCN)NC1=O [compound 5017, nC9CO-D-Dab-cyc[L-Dab-L-Dab-D-Phe-L-Leu-L-Dab-L-Dab-L-Leu]] (Decanoyl-[dDab][Dab][Dab][dF]L[Dab][Dab]L; lactam 2-C)
MIC K. pneumoniae ATCC BAA-2146, NDM-1 pos [1]: 16 µg/mL (≈ 15.6 µM)
MIC P. aeruginosa ATCC 27853 [2]: 2 µg/mL (≈ 1.94 µM)
MIC E. coli ATCC 25922 [3]: 4 µg/mL (≈ 3.89 µM)
MIC P. aeruginosa GN_043, PmxR [4]: 2 µg/mL (≈ 1.94 µM)
MIC A. baumannii GN_093 PmxR [5]: 16 µg/mL (≈ 15.6 µM)
MIC K. pneumoniae ATCC 700603, MDR [6]: 16 µg/mL (≈ 15.6 µM)
MIC S. aureus ATCC 25923, MSSA [7]: 16 µg/mL (≈ 15.6 µM)
MIC A. baumannii ATCC 19606 [8]: 8 µg/mL (≈ 7.78 µM)
MIC K. pneumoniae ATCC 13883 [9]: 8 µg/mL (≈ 7.78 µM)
MIC P. aeruginosa GN_105, PmxR [10]: 4 µg/mL (≈ 3.89 µM)
MIC K. pneumoniae GN_102 PmxR [11]: 32 µg/mL (≈ 31.1 µM)
MIC K. pneumoniae GN_106, PmxR [12]: 16 µg/mL (≈ 15.6 µM)
